# From ChEMBL document CHEMBL1201862, “PubChem BioAssay data set” (2004)
# The source made the active and inactive calls. For most assays here, no stated cut-off is given here; in the data, actives have a measured EC50 and inactives only a lower limit.
# Key:
# [1] = HEp-2 cell cytotoxicity, dose response, cytotoxicity control for RSV inhibitor project, HTS (AID 2410); type: functional; settings: human respiratory syncytial virus
# [2] = Luminescence Cell-Based Dose Response HTS to Identify Inhibitors of 5'UTR Stem-Loop Driven Prion Protein mRNA Translation in H4 Neuroglioblastoma Cells. [Related pubchem assays: 1827 (Project Summary), 1813 (Primary HTS)]; type: functional
# [3] = inhibitors of firefly luciferase expression or activity, dose response, H4 neuroglioma cells, luminescence (AID 1990); type: functional, cell-based
# [4] = inhibitors of SNCA 5'UTR-driven reporter translation, confirmation, H4 neuroglioma cells, luminescence (AID 1988); type: functional, cell-based
# [5] = biological target: T1, Heat shock factor protein 1 (Mus musculus, UniProt P38532); assay: inhibition of MG132-induced HSE-luciferase signal, confirmation, cell-based, NIH3T3, luminescence, dose retest (AID 2382); type: functional;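 further: NIH3T3 fibroblasts with HSF1-driven luciferase reporter stressed by proteasome inhibitor MG132; luminescence from HSF1-driven luciferase expression after 8 hours of MG132 stress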
# T1 sequence (P38532 whole entry): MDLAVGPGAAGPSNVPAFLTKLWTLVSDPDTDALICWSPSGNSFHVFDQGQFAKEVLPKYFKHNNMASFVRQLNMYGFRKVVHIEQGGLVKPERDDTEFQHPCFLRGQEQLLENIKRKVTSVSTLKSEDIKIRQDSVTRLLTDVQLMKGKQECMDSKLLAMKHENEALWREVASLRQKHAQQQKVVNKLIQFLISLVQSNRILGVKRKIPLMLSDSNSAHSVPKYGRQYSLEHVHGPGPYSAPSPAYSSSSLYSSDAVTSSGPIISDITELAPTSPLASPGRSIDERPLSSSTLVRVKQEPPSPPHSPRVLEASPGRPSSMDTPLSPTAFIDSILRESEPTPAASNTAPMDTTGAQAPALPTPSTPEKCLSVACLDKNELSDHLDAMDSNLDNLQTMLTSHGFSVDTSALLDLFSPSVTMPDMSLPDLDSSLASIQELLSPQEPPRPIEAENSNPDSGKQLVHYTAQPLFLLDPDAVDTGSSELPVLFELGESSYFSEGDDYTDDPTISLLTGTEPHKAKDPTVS
# [6] = cytotoxicity toward NIH3T3 fibroblasts, dose response, counter-screen, cell-based, ATP luminescence, mouse fibroblasts (AID 2010); type: functional;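 further: cells exposed to compound for about 90 hours before reading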
# [7] = inhibitors of intracellular T. cruzi replication, confirmation, NIH3T3 host cells, beta-gal luminescence (AID 2044); type: functional, cell-based;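 further: intracellular parasites grown in NIH/3T3 mouse fibroblasts as host cells; luminescent beta-galactosidase reporter signal from transgenic T. cruzi replicating inside host cells; inhibitors lower the luminescence signal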
# [8] = system: Streptococcus sp. 'group A'; assay: growth inhibition of control SK(-) GAS strain, dose response, counter-screen for streptokinase expression inhibitor project, luminescence, kanamycin, BacTiterGlo, confirmation (AID 1900); type: functional, organism-based
# Streptococcus = assay: Group A Streptococcus viability loss, dose response, counter-screen for streptokinase expression inhibitor project, luminescence, BacTiterGlo (AID 1915); type: functional, organism-based;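 further: potency for reduction of bacterial viability or growth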
# Streptokinase A = biological target: T2, Streptokinase A (Streptococcus pyogenes serotype M1, UniProt P10520); assay: S. pyogenes streptokinase expression inhibitors, potency, dose response, plasminogen activation absorbance, OD405 (AID 1914); type: functional, Streptococcus pyogenes M1 GAS;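 further: secreted streptokinase activity via plasminogen activation per viability signal from cell pellet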
# T2 sequence (P10520 whole entry): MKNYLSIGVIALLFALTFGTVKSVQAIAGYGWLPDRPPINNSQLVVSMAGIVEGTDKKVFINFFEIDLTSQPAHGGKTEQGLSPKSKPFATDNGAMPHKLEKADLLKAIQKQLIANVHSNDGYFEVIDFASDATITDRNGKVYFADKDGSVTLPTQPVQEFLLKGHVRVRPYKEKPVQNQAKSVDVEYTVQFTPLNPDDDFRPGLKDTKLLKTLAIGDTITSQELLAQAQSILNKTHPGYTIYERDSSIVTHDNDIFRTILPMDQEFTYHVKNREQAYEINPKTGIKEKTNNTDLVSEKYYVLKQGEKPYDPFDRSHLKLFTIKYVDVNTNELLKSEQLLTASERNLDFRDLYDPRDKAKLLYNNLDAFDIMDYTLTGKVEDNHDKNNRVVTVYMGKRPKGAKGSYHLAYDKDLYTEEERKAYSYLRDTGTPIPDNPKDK
compound,measurement,setting,value
COc1ccc(CCNC(=O)c2ccc3c(c2)N(Cc2ccc(F)cc2)CCS3)cc1OC,CC50,[1],25.7 µM (active)
CCOC(=O)c1ccc(NC(=O)c2cc3c(C)nn(-c4ccccc4Cl)c3s2)s1,EC50,[2],> 120 µM (not active)
same,EC50,[3],15.3 µM (active)
same,EC50,[4],> 120 µM (not active)
Cc1nn(Cc2ccc(F)cc2)c(C)c1NC(=O)c1cc(-c2ccc3c(c2)OCO3)on1,EC50,[2],> 120 µM (not active)
same,EC50,[3],15.7 µM (active)
same,EC50,[4],> 120 µM (not active)
CC1(OC(=O)CCc2ccccc2)C(=O)C=C2C=C(c3ccc(C#N)cc3)N(CCc3ccccn3)C=C2C1=O (centres undefined),EC50,[5],> 195 µM (not active)
COc1cc(OC)c2c3c(c(C4CCCCC4)nc2c1)CCC3,CC50,[1],30.1 µM (active)
N#CCc1c(C#N)c(N)nc(N2CCCC2)c1C#N,CC50,[1],19.6 µM (active)
CCOC(=O)c1c(C)[nH]c(C)c1S(=O)(=O)NCCc1cccs1,EC50,[5],> 195 µM (not active)
Cc1nc(N)sc1-c1csc(Nc2ccc(Cl)cn2)n1,CC50,[1],7.95 µM (active)
COc1ccccc1CNC(=O)c1ccc2[nH]c3nc4ccccc4c-3nc2c1,CC50,[1],> 50 µM (active)
O=C(c1ccccc1)c1nc2ccccc2n(CCCn2c(=O)c(C(=O)c3ccccc3)nc3ccccc32)c1=O,EC50,[2],34.5 µM (active)
same,EC50,[3],33.3 µM (active)
same,EC50,[4],> 120 µM (not active)
CCOC(=O)c1c(C)n(C)c2ccc(OC)c(NC(=O)CN3CCSCC3)c12,EC50,[5],> 195 µM (not active)
CCCC(=O)Nc1nc(C)c(-c2csc(Nc3ccc(Cl)cc3)n2)s1,CC50,[1],7.41 µM (active)
O=C1N[C@@H](Cc2ccccc2)C(=O)N2[C@@H]3N(S(=O)(=O)c4ccc(F)cc4)c4ccccc4[C@]3(Br)C[C@@H]12,CC50,[1],> 50 µM (active)
Cc1cc(C)n(CC(C)NC(=O)c2cc(COc3ccc(F)c(F)c3)on2)n1 (centres undefined),EC50,[5],> 195 µM (not active)
CCOC(=O)C1CCN(C(=O)CCc2c(C)nc3cc(-c4ccccc4)nn3c2C)CC1,EC50,[2],27.1 µM (active)
same,EC50,[3],18.2 µM (active)
COc1cc(NS(=O)(=O)c2csc(C(N)=O)c2)cc(OC)c1,EC50,[5],> 195 µM (not active)
CCC1(C)Cc2c(sc3nc(SC)nc(N)c23)CO1 (centres undefined),CC50,[1],31 µM (active)
COc1ccc(CCNC(=O)Cc2cccs2)cc1,EC50,[5],> 195 µM (not active)
Cc1nnc(C)c2c(C)n(C(c3ccccc3)c3ccccc3)c(C)c12,EC50,[6],> 60 µM (not active)
same,EC50,[7],1.46 µM (active)
same,CC50,[1],18.3 µM (active)
CCOc1ccccc1CNC(=O)c1nn(C)c2c1CS(=O)(=O)c1ccccc1-2,EC50,[2],> 120 µM (not active)
same,EC50,[3],> 120 µM (not active)
same,EC50,[4],> 120 µM (not active)
COc1cccc(CC(=O)N[C@@H](CCSC)c2nc3ccccc3[nH]2)c1,EC50,[5],> 195 µM (not active)
COc1ccc(-c2noc(CCCC(=O)NC3CCCC3)n2)cc1,EC50,[2],14.1 µM (active)
same,EC50,[3],11 µM (active)
same,EC50,[4],13.3 µM (active)
COc1ccc2oc(C(=O)OCC(=O)N(C)CC(=O)Nc3ccc(C)cc3)c(C)c2c1,EC50,[5],> 195 µM (not active)
C/C=C/c1ccc(OCC(=O)Nc2ccc(OC)c(OC)c2)c(OC)c1,EC50,[5],> 195 µM (not active)
CC(C)(C)n1nnnc1CN1CCC(NC(=O)NC2CCCCC2)CC1,EC50,[5],33.9 µM (active)
CCOc1ccc2c3c(c(=O)oc2c1OCC)CCCC3,CC50,[1],44 µM (active)
COc1cccc(OC)c1CC1SC(=O)NC1=O (centres undefined),CC50,[1],40.2 µM (active)
Cc1ccc(C)c(C(=O)OCC(=O)Nc2cccc(S(=O)(=O)NC3=NCCCCC3)c2)c1,CC50,[1],20.6 µM (active)
Cc1cc(C(=O)COC(=O)c2ccco2)c(C)n1Cc1ccco1,EC50,[5],< 0.16 µM (active)
CCC(C)(C)c1ccc(Oc2ccc(NC(=O)COC(=O)C3=COCCO3)cc2)cc1,EC50,[2],10.1 µM (active)
same,EC50,[3],6.08 µM (active)
same,EC50,[4],8.92 µM (active)
Cc1ccc(C)c2sc(N3CCN(C(=O)c4ccc([N+](=O)[O-])o4)CC3)nc12,EC50,[8],2.67 µM (active)
same,EC50,Streptococcus,9.98 µM (active)
same,CC50,[1],16.9 µM (active)
same,EC50,Streptokinase A,2.59 µM (active)
